Our source for the IC50 values is US8349885B2, “Indole and indazole derivatives having a cell-, tissue- and organ-preserving effect” (LG Life Sciences Ltd., priority 2008, dated 2013).

Structures are written as SMILES. Some results are limits rather than exact numbers.

Usually IC50 stands for the point on the concentration scale where inhibition reaches its midpoint. Lower therefore signals greater potency in that assay.

The test system of assay [1] is primary cultured hepatocytes. Put plainly: Cell-protecting effect against cold shock in primary cultured hepatocytes (WST-1). In kind it is cell-based. The note with it: Rattus norvegicus, Hepatocyte, 37° C. for 1 hour, 4° C. for 22 hours, then 37° C., cell viability by WST-1. As to the method:
In order to reproduce a condition for preservation prior to organ transplantation, primary cultured hepatocytes were prepared according to Experimental Example 1 and treated with the compounds of the working examples at 9 different concentrations that had been prepared by 3-fold serial dilution method using a starting concentration of 25 μM. The mixture was cultured at 37° C. for 1 hour, stored at 4° C. for 22 hours, and then transferred into an incubator at 37° C. and cultured therein. Cell viability was measured by the optical density at 440 nm according to the WST-1 method (MK-400, Takeda), and IC50 (unit: μM) was obtained using prism software (see Table 1).

Assay [2] concerns human embryonic lung cell line (LB-HEL). Kind of assay: Cell-protecting effect against cold shock in LB-HEL cells (WST-1). The class given is cell-based. Conditions: cold shock at 4° C. for 24 hours, then 37° C., cell viability by WST-1. As to the method: The same results as above were also obtained in other types of cells such as human embryonic lung cell line (LB-HEL) as well as hepatocytes (see FIG. 2 and Table 2). More specifically, LB-HEL cells were plated at 1.5×10^6 cells/well using DMEM medium (Gibco BRL) and treated with DMSO, nec-1, IM-54 or the compounds of Examples 126, 127, 137 and 138 at indicated concentrations. After storage at 4° C. for 24 hours, the mixture was transferred into an incubator at 37° C. and cultured therein. In order to verify recovery capacity at 37° C., cell viability after 24 hours post-transfer was measured by the optical density at 440 nm according to the WST-1 method (MK-400, Takeda) and compared with cell viability prior to cold shock (FIG. 2).

In turn, `OC[C@@H]1CSC(c2cc3cccc(NC4CCCC4)c3[nH]2)=N1` [Example 5, [(R)-2-(7-cyclopentylamino-1H-indol-2-yl)-4,5-dihydro-1,3-thiazol-4-yl]-methanol] showed an IC50 in assay [1] of under 120 nM. The same measure, in the same setting: under `OC[C@@H]1CSC(c2cc3cccc(NC4CCOCC4)c3[nH]2)=N1` [Example 7, {(R)-2-[7-(tetrahydro-pyran-4-ylamino)-1H-indol-2-yl]-4,5-dihydro-thiazol-4-yl}-methanol] stands under 400 nM; under `O=C(O)C[C@@H]1CSC(c2cc3cc(Br)cc(NC4CCCC4)c3[nH]2)=N1` [Example 16, [(R)-2-(5-bromo-7-cyclopentylamino-1H-indol-2-yl)-4,5-dihydro-thiazol-4-yl]-acetic acid], 3560 nM.

In assay [1], `CCOc1cc(NC2CCCC2)c2[nH]c(C3=N[C@H](CC(=O)O)CS3)cc2c1` [Example 17, [(R)-2-(7-cyclopentylamino-5-ethoxy-1H-indol-2-yl)-4,5-dihydro-thiazol-4-yl]-acetic acid] yielded an IC50 of under 120 nM. In assay [1], `CCOC(=O)CC[C@@H]1CSC(c2cc3cc(Cl)cc(NC4CCCC4)c3[nH]2)=N1` [Example 22, 3-[(R)-2-(5-chloro-7-cyclopentylamino-1H-indol-2-yl)-4,5-dihydro-thiazol-4-yl]-propionic acid ethyl ester] came in with an IC50 of 970 nM. That is a sub-micromolar value. `c1ccc(-c2cc3cccc(NC4CCCC4)c3[nH]2)nc1` [Example 24, cyclopentyl-(2-pyridin-2-yl-1H-indol-7-yl)amine] had an IC50 in assay [1] of under 120 nM. As for `Cc1cc(NC2CCCC2)c2[nH]c(-c3nc(C(=O)O)cs3)cc2c1` [Example 29, 2-(7-cyclopentylamino-5-methyl-1H-indol-2-yl)-thiazole-4-carboxylic acid], the midpoint of inhibition in assay [1], the IC50, lay at 1460 nM. In the case of `Cc1cc(NC2CCCC2)c2[nH]c(-c3nc(CO)cs3)cc2c1` [Example 30, [2-(7-cyclopentylamino-5-methyl-1H-indol-2-yl)-thiazole-4-yl]-methanol], the 50% inhibitory concentration (IC50) in assay [1] was under 120 nM.

`Cc1cc(NC2CCCC2)c2[nH]c(-c3nnco3)cc2c1` [Example 32, cyclopentyl-(5-methyl-2-[1,3,4]oxadiazol-2-yl-1H-indol-7-yl)-amine] came in with an IC50 in assay [1] of under 120 nM. `Cc1cc(NC2CCC(=O)CC2)c2[nH]c(-c3ccccn3)cc2c1` [Example 38, 4-(5-methyl-2-pyridin-2-yl-1H-indol-7-ylamino)-cyclohexanone] showed an IC50 in assay [1] of under 120 nM. In assay [1], `Cc1cc(NCC2CCCC2)c2[nH]c(-c3ccccn3)cc2c1` [Example 40, cyclopentylmethyl-(5-methyl-2-pyridin-2-yl-1H-indol-7-yl)-amine] had an IC50 of under 120 nM. On to `Cc1cc(NC2CCCC2)c2[nH]c(C3CCCCC3)cc2c1` [Example 47, (2-cyclohexyl-5-methyl-1H-indol-7-yl)-cyclopentyl-amine], for which the IC50 in assay [1] is under 120 nM. Same read-out and setting: under `CC(=O)N1CCC(Nc2cc(C)cc3cc(-c4ccccc4)[nH]c23)CC1` [Example 51, 1-[4-(5-methyl-2-phenyl-1H-indol-7-ylamino)-piperidin-1-yl]-ethanone] stands 260 nM.

In turn, `Cc1cc(NC2CCC(C(=O)NCCN3CCOCC3)CC2)c2[nH]c(-c3ccccc3)cc2c1` (stereo not shown) [Example 56, 4-(5-methyl-2-phenyl-1H-indol-7-ylamino)-cyclohexane carboxylic acid (2-morpholin-4-yl-ethyl)-amide] yielded an IC50 in assay [1] of 200 nM. The IC50 values of the last two compounds are within 1.5-fold of each other. Same read-out and setting: under `Cc1cc(NCC2CCOCC2)c2[nH]c(-c3ccccc3)cc2c1` [Example 58, (5-methyl-2-phenyl-1H-indol-7-yl)-(tetrahydro-pyran-4-ylmethyl)-amine] stands under 120 nM; under `O=C(O)Cc1cc(NC2CCCC2)c2[nH]c(-c3ccccc3)cc2c1` [Example 75, (7-cyclopenthylamino-2-phenyl-1H-indol-5-yl)-acetic acid], under 120 nM. Still for that read-out and setting: then `OCCc1cc(NC2CCCC2)c2[nH]c(-c3ccccc3)cc2c1` [Example 76, 2-(7-cyclopenthylamino-2-phenyl-1H-indol-5-yl)-ethanol], with under 120 nM. In turn, `Cc1cc(NC2CCC(F)(F)CC2)c2[nH]c(C3=NC(CC(=O)O)CS3)cc2c1` (stereo not shown) [Example 79] showed a concentration for half-maximal inhibition (IC50) in assay [2] of 3300 nM. With `O=C(O)CC1CSC(c2cc3cccc(NC4CCCC4)c3[nH]2)=N1` (stereo not shown) [Example 83], the figures for the IC50 in assay [2] and in assay [1] were 3660 nM and 729 nM, respectively. With `CC(=O)N1CCC(Nc2cccc3cc(C4=NC(CC(=O)O)CS4)[nH]c23)C1` (stereo not shown) [Example 84], the IC50 in assay [2] came out at 7110 nM. For `O=S1(=O)CCN(Cc2cc(NC3CCOCC3)c3[nH]c(-c4ccccc4)c(Br)c3c2)CC1` [Example 139], the 50% inhibitory concentration (IC50) in assay [2] is under 100 nM. Same read-out and setting: under `Brc1c(-c2ccccc2)[nH]c2c(NC3CCOCC3)cc(CN3CCOCC3)cc12` [Example 140, [3-bromo-(5-morpholin-4-yl)methyl-2-phenyl-1H-indol-7-yl]-(tetrahydropyran-4-yl)-amine] stands under 100 nM; under `O=S1(=O)CCN(Cc2cc(NC3CCCC3)c3[nH]c(-c4ccccc4)c(Br)c3c2)CC1` [Example 141, [3-bromo-5-(1,1-dioxo-thiomorpholin-4-yl methyl)-2-phenyl-1H-indol-7-yl]-cyclopentyl-amine], under 100 nM. Take `O=S1(=O)CCN(Cc2cc(NCC3CCOCC3)c3[nH]c(-c4ccccc4)c(Br)c3c2)CC1` [Example 142, [3-bromo-5-(1,1-dioxo-thiomorpholin-4-ylmethyl)-2-phenyl-1H-indol-7-yl]-(tetrahydro-pyran-4-ylmethyl)-amine]: the IC50 in assay [2] is under 100 nM; in assay [1], 300 nM.

Take `Clc1cc(NC2CCOCC2)c2[nH]cc(-c3ccccc3)c2c1` [Example 143, (5-chloro-3-phenyl-1H-indol-7-yl)-(tetrahydro-pyran-4-yl)-amine]: the IC50 in assay [2] was under 100 nM. Regarding `Clc1cc(NC2CCCC2)c2[nH]cc(-c3ccccc3)c2c1` [Example 144, (5-chloro-3-phenyl-1H-indol-7-yl)-(cyclopentyl)-amine], the concentration for half-maximal inhibition (IC50) in assay [2] was under 100 nM. The compound `Clc1cc(NCC2CCOCC2)c2[nH]cc(-c3ccccc3)c2c1` [Example 145, (5-chloro-3-phenyl-1H-indol-7-yl)-(tetrahydropyran-4-ylmethyl)-amine] came in with an IC50 in assay [2] of under 100 nM. On to `C[Si](C)(C)c1[nH]c2c(NC3CCOCC3)cc(CN3CCS(=O)(=O)CC3)cc2c1-c1ccccc1` [Example 146, [5-(1,1-dioxo-thiomorpholin-4-ylmethyl)-3-phenyl-2-trimethylsilanyl-1H-indol-7-yl]-(tetrahydropyran-4-yl)-amine], for which the IC50 stood at 823 nM in assay [2] and 603 nM in assay [1]. Compound `O=C1CN(Cc2c(-c3ccccc3)[nH]c3c(NC4CCCC4)cc(Cl)cc23)CCN1` [Example 147, 4-(5-chloro-7-cyclopentylamino-2-phenyl-1H-indol-3-ylmethyl)-piperazin-2-one] came in with an IC50 in assay [2] of 1080 nM. In other words, the single-digit micromolar range. For the compound `O=C1CN(Cc2c(-c3ccccc3)[nH]c3c(NC4CCOCC4)cc(Cl)cc23)CCN1` [Example 148, 4-[5-chloro-2-phenyl-7-(tetrahydropyran-4-ylamino)-1H-indol-3-ylmethyl]-piperazin-2-one], the IC50 in assay [2] came out at 2350 nM. Same read-out and setting: under `O=C1CN(Cc2c(-c3ccccc3)[nH]c3c(NCC4CCOCC4)cc(Cl)cc23)CCN1` [Example 149, 4-{5-chloro-2-phenyl-7-[(tetrahydropyran-4-ylmethyl)-amino]-1H-indol-3-ylmethyl}-piperazin-2-one] stands 1450 nM; under `COc1ccc(-c2n[nH]c3c(NC4CCCC4)cccc23)cc1` [Example 150, cyclopentyl-[3-(4-methoxyphenyl)-1H-indazol-7-yl]-amine], 210 nM; under `COc1ccc(-c2n[nH]c3c(NC4CCOCC4)cccc23)cc1` [Example 151, [3-(4-methoxyphenyl)-1H-indazol-7-yl]-(tetrahydropyran-4-yl)-amine], 384 nM. Same read-out and setting: under `COc1ccc(-c2n[nH]c3c(NCC4CCOCC4)cccc23)cc1` [Example 152, [3-(4-methoxyphenyl)-1H-indazol-7-yl]-(tetrahydropyran-4-ylmethyl)-amine] stands 590 nM.
